Measured values as given in US20220273624A1, “NOVEL ANTIVIRAL THERAPIES” (NIKLOVIR AB, priority 2019, published 2022).
Like-named read-outs stand apart in the source and are kept apart here.

How the values were obtained:
[1] = system: Ljungan-like virus; test: Immunohistochemistry for LV VP1 antigen in pancreas tissue of treated DP-BB rats (Example 1); assay type: in vivo, rat; details: for Non-infected (number of animals, viral antigen in pancreas by IHC) / Infected (number of animals, viral antigen in pancreas by IHC): Pleconaril 100 mg/kg, Efavirenz 30 mg/kg daily from 45 to 60 days of age; for Non-infected (number of animals, viral antigen in pancreas by IHC): control 0 of 9 non-infected; for Infected (number of animals, viral antigen in pancreas by IHC): control 9 of 9 infected; for effect on clearing the infection (in words): pancreas tissue following treatment
Protocol: DP-BB rats were obtained from the breeding colony maintained at the Karolinska Institute (Solna, Sweden). The animals were housed under Specific Pathogen Free conditions in a temperature- and humidity-controlled room with 12 hour light dark cycles. They were fed R36 diet and water ad libitum. Animals of both genders were used. The overall incidence of diabetes among the DP rats used in the colony study is 100% with 60 days as the mean age of onset.
Antiviral agents (pleconaril and efavirenz) were administered to the animals in a dose of 100 mg/kg and 30 mg/kg body weight for Pleconaril and Efavirenz, respectively. Treatment was given daily using formulation containing the vehicle 0.4% (v/v) Tween 80+2% (v/v) glycerol+15% (w/v) Hydroxypropyl-beta-cyclodextrin.
Four experimental treatment groups consisted of six rats given pleconaril, six given Efavirenz, eight given a combination of both compounds, and nine given the vehicle solution and serving as a control. All four groups began treatment at 45 days of age and treatment was maintained until 60 days of age when animals were sacrificed.
Formalin fixed paraffin embedded pancreas tissue were analyzed by immunohistochemistry. The tissues were fixed in 4% formalin and embedded in paraffin as described previously with minor modifications (Shi et al., 1991), (Shi, 1997). Presence of LV specific antigen was visualized using a polyclonal recombinant LV VP1 raised in rabbits (Tolf, 2008). As control we used serum from a rabbit immunized using the same protocol but with the carrier GST protein only. Tissues from LV-infected and non-infected animals were included as controls. The specificity of the rabbit antibodies were verified by analyzing control specimens generated by mixing infected tissue culture cells with non-infected cells followed by formalin fixation and paraffin imbedding. The specificity of the reaction was also confirmed by blocking the signal with LV antigen in parallel with control antigen.
Pancreas tissue was also analysed using the PCR assay described by Donoso Mantke and co-workers (Donoso Mantke et al., 2007).

[2] = system: DP BB rats; details: group B, Pleconaril alone 100 mg/kg BW once daily for 30 days, previously reported (Niklasson et al., 2016), control 59 (7), cited from earlier work

Structure (SMILES)	Non-infected (number of animals, viral antigen in pancreas by IHC) [1]	Infected (number of animals, viral antigen in pancreas by IHC) [1]	effect on clearing the infection (in words) [1]	Mean diab onset day (SD) ([2]; listed as Plec)	Mean diab onset day (SD) [2]
O=C1Nc2ccc(Cl)cc2[C@@](C#CC2CC2)(C(F)(F)F)O1 [Efavirenz, (4S)-6-chloro-4-(2-cyclopropylethynyl)-4-(trifluoromethyl)-1H-3,1-benz-oxazin-2-one]	0	6	essentially no effect		
Cc1cc(CCCOc2c(C)cc(-c3noc(C(F)(F)F)n3)cc2C)on1 [Pleconaril, 3-[3,5-dimethyl-4-[3-(3-methylisoxazol-5-yl)propoxy]phenyl]-5-(trifluoro-methyl)-1,2,4-oxadiazole]	2	4	only a modest effect on clearing the infection	62 (8) day	62 (SD 8) day
